Calls of active or inactive are those of the source.
Columns and labels:
[1] = tested on: HEK293; test: cells; conditions: Homo sapiens
[2] = target: T1, Histone-lysine N-methyltransferase NSD2 (Homo sapiens, UniProt O96028); format: biochemical
T1 sequence (O96028 whole entry): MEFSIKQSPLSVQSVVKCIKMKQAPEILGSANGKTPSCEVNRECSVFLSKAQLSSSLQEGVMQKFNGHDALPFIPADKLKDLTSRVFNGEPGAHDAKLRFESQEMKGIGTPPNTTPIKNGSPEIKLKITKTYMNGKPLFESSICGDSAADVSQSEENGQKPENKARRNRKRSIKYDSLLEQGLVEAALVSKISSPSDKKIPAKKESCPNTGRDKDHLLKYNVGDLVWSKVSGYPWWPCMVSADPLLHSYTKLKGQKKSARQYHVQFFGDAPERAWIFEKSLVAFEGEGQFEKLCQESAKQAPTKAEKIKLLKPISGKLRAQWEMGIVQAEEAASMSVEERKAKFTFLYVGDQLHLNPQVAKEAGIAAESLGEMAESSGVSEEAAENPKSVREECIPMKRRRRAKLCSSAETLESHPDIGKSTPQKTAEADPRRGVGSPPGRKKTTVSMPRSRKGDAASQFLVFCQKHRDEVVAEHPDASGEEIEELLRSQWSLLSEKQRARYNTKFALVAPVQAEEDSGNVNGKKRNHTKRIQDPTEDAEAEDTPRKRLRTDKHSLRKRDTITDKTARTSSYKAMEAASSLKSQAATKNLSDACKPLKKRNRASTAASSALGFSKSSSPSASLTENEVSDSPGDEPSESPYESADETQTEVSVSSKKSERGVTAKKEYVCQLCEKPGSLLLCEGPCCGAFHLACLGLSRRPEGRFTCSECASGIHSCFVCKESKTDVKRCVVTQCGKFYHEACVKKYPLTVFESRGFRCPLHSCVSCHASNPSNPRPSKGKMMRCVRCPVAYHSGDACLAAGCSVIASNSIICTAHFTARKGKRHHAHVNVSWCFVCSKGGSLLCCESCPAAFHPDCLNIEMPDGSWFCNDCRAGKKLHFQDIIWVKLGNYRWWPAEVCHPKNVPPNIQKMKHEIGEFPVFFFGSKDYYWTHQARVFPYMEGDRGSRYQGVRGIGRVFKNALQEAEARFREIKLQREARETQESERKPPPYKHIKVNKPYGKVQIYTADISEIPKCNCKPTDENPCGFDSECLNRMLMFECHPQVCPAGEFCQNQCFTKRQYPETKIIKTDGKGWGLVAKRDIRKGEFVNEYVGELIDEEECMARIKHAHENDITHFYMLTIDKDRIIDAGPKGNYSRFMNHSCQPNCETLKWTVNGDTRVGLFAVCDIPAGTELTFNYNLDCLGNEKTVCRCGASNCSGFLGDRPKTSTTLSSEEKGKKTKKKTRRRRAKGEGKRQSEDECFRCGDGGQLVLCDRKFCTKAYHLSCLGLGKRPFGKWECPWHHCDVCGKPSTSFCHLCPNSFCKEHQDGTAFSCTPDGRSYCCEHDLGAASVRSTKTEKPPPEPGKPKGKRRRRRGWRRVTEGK

[3] = tested on: HEK293; test: cells; conditions: Homo sapiens; remark: listed apart in the source
[4] = Luminescence Cell-Based Dose Retest to Confirm Inhibitors of Cancer Stem Cells. [Related pubchem assays (depositor defined):AID2717, AID2721]; format: functional; conditions: Homo sapiens
[5] = target: Dual specificity tyrosine-phosphorylation-regulated kinase 1A (Rattus norvegicus, UniProt Q63470); format: biochemical, Homo sapiens
[6] = target: T2, Sentrin-specific protease 8 (Homo sapiens, UniProt Q96LD8); format: functional
T2 sequence (Q96LD8 whole entry): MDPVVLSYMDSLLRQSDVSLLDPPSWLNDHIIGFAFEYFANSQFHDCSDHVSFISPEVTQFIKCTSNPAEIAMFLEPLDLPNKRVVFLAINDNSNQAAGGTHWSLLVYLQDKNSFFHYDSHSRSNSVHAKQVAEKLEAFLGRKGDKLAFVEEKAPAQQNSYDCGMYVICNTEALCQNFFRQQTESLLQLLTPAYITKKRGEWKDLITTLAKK

[7] = target: T2, Sentrin-specific protease 8; format: functional; remark: listed apart in the source
[8] = viability loss in HeLa cells – cytotoxicity control for MgcRacGAP inhibitor project, dose response (AID 624300); format: functional
[9] = Fluorescence-based cell-based high throughput dose response assay for inhibitors of the interaction of nucleotide-binding oligomerization domain containing 2 (NOD2) and the receptor-interacting serine-threonine kinase 2 (RIPK2).; format: functional; conditions: Homo sapiens
[10] = viability of uninfected HEp-2 cells – cell-based, HTS, cytotoxicity control for RSV inhibitor project, dose response (AID 2410); format: functional; conditions: human respiratory syncytial virus
[11] = tested on: Vero; test: cells; format: functional, cell-based; conditions: Chlorocebus sabaeus
[12] = tested on: Vero; test: cells; format: functional; conditions: Chlorocebus sabaeus
[13] = target: T3, High affinity choline transporter 1 (Homo sapiens, UniProt Q9GZV3); test: human choline transporter blockers, potency – cell-based, 5-point CRC, membrane potential dye, dose response (AID 504840); format: functional
T3 sequence (Q9GZV3 whole entry): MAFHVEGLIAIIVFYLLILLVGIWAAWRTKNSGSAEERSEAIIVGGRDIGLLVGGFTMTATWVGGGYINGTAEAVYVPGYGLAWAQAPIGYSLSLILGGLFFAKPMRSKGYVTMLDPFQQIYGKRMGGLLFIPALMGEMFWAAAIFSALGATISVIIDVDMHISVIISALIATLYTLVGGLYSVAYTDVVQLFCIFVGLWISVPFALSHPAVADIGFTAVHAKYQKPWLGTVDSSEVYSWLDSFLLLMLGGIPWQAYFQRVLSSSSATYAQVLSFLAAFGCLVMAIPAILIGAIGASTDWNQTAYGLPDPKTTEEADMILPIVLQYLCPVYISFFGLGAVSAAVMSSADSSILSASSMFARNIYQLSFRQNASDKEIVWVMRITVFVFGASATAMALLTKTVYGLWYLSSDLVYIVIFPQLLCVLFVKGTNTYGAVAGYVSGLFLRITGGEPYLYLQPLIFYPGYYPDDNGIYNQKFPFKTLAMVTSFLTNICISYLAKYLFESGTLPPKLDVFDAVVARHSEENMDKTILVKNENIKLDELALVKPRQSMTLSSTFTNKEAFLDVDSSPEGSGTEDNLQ

[14] = target: Melanocortin receptor 4 (Homo sapiens, UniProt P32245); format: functional, cell-based;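 note: Cell-based assay with luminescence read-out, confirmatory dose-response testing for agonist activity of biased ligands at MC4R; human U2OS cells with tagged receptor and beta-arrestin; potency of agonists that increase receptor coupling to beta-arrestin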
[15] = microbe, parasite or virus in culture; format: functional; conditions: Mycobacterium tuberculosis
[16] = target: T4, Low molecular weight phosphotyrosine protein phosphatase (Homo sapiens, UniProt P24666); format: functional; conditions: read-out: IC50_Mean
T4 sequence (P24666 whole entry): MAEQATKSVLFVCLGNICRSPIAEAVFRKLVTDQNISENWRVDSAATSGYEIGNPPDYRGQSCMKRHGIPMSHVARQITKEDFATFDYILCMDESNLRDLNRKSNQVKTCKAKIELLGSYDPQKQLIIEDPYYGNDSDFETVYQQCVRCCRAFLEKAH

[17] = target: T4, Low molecular weight phosphotyrosine protein phosphatase; format: functional; conditions: read-out: IC50_Mean; remark: listed apart in the source
[18] = Trypanosoma cruzi growth suppression in host cells – NIH3T3 host cells, beta-gal luminescence, confirmation (AID 2044); format: functional, cell-based;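 note: intracellular parasites grown in NIH/3T3 mouse fibroblasts as host cells; luminescent beta-galactosidase reporter signal from transgenic T. cruzi replicating inside host cells; inhibitors lower the luminescence signal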
[19] = cells
[20] = NIH3T3 cell viability loss – ATP luminescence, mouse fibroblasts, counter-screen, dose response (AID 2010); format: functional, cell-based;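 note: cells exposed to compound for about 90 hours before reading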
[21] = target: T5, Polyadenylate-binding protein 1 (Homo sapiens, UniProt P11940); test: MLLE binding blockers, Cy5 peptide tracer – biochemical, fluorescence polarization, Cy5-PAM2 peptide, secondary, miRNA deadenylation inhibitor project, dose response (AID 602260); format: functional; conditions: read-out: IC50_Mean
[22] = Luminescence Cell-Based Dose Confirmation HTS to Identify Activators of 5'UTR Stem-Loop Driven Alpha-Synuclein mRNA Translation in H4 Neuroglioblastoma Cells. [Related pubchem assays: 1829 (Project Summary), 1814 (Primary HTS)]; format: functional
[23] = target: T5, Polyadenylate-binding protein 1; test: MLLE domain peptide-binding blockers, IC50 – biochemical, fluorescence polarization, FITC-PAM2 peptide, dose response (AID 602259); format: functional; conditions: read-out: IC50_Mean
[24] = tested on: H4; test: Luminescence Cell-Based Dose Response HTS to Identify Activators of 5'UTR Stem-Loop Driven Prion Protein mRNA Translation in H4 Neuroglioblastoma Cells. [Related pubchem assays: 1829 (Project Summary), 1814 (Primary HTS)]; format: functional; conditions: Homo sapiens
[25] = Luminescence Cell-Based Dose Response HTS to Identify Activators of Luciferase Translation or Activity in H4 […] Cells. [Related pubchem assays: 1829 (Project Summary), 1814 (Primary HTS)]; format: functional
[26] = Vero E6 cell cytotoxicity, dose response, cytotoxicity control for non-replicating M. tuberculosis project, secondary assay (AID 492998); format: functional, VeroE6; conditions: Vero C1008
[27] = THP-1 cell cytotoxicity, dose response, cytotoxicity control for non-replicating M. tuberculosis project (AID 489025); format: functional
[28] = cells; format: functional
[29] = HEK-293T cell viability reduction – luminescence, B-cell screen hits, cytotoxicity control for BCR NF-kB inhibitor project, dose response (AID 489021); format: functional, cell-based;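 note: HEK-293T cells carrying an NF-kB luciferase reporter; cells exposed to compound for about 14 hours before viability readout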
[30] = target: FAD-linked sulfhydryl oxidase ALR (Homo sapiens, UniProt P55789); test: ALR-catalysed DTT oxidation blockers – biochemical, H2O2 detection, luminescence, cherry-pick, dose response (AID 493248)
[31] = target: T6, Mannose-6-phosphate isomerase (Homo sapiens, UniProt P34949); test: MPI inhibition at elevated mannose 6-phosphate – biochemical, fluorescence intensity, high mannose 6-phosphate, primary screen (AID 1220)
T6 sequence (P34949 whole entry): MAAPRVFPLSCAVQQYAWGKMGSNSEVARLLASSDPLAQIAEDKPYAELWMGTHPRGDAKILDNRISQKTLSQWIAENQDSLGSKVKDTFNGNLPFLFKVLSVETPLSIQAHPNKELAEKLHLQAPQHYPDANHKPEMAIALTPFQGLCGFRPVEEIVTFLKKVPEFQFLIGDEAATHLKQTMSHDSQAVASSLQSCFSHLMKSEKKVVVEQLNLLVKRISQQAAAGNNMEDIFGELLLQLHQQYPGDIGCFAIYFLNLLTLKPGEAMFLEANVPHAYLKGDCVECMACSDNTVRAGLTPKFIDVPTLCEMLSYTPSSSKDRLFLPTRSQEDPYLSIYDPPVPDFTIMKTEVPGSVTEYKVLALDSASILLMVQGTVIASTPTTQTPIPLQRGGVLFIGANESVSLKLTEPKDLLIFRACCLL

T5 sequence (P11940 whole entry): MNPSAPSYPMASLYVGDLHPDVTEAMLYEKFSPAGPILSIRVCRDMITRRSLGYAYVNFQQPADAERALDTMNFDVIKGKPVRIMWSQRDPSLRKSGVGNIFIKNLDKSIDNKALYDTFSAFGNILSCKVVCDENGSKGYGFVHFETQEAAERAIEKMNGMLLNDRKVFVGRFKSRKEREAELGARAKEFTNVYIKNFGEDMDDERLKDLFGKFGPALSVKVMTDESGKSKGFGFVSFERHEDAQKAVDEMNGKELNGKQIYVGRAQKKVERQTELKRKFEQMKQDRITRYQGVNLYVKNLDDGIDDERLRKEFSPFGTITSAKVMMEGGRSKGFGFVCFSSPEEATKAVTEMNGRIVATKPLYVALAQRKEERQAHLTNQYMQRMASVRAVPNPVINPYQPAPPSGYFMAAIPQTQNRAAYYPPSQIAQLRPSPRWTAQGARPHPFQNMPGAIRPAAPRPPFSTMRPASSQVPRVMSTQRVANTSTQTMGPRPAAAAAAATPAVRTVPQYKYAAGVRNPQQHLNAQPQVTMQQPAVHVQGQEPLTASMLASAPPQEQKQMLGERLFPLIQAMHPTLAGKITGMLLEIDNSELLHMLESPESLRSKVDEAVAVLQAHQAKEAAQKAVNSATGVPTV
Sequence of FAD-linked sulfhydryl oxidase ALR (P55789 whole entry): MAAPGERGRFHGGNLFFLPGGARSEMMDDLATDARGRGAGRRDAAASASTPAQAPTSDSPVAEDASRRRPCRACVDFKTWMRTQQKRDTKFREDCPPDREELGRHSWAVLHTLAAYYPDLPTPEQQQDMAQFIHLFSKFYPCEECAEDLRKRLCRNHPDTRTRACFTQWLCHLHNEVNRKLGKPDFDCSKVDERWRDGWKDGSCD
Sequence of Melanocortin receptor 4 (P32245 whole entry): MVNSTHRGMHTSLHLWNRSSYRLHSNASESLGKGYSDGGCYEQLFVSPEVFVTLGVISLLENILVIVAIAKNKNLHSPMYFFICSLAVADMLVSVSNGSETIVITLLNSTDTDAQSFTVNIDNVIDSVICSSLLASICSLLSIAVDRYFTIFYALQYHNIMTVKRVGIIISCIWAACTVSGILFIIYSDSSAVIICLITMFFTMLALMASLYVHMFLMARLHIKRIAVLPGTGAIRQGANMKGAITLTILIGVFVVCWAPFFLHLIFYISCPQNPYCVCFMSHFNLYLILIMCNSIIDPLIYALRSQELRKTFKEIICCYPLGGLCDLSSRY

## Cc1ccc(N2C(=O)NC(=O)/C(=C\C=C\c3ccco3)C2=O)cc1
[1]
  EC50: > 59.6 µM (inactive)
[2]
  AC50: > 20 µM (inactive)
[3]
  EC50: > 59.6 µM (inactive)
[4]
  AC50: 2.98 µM (active)

## O=C1NC(=O)/C(=C\c2ccc(Oc3cnccn3)cc2)S1
[5]
  AC50: 4.71 µM (active)

## Cc1ccc(-c2nn[nH]n2)cc1Cl
[5]
  AC50: 9.99 µM (active)

## O=C(O)c1cccc(N2C(=O)c3ccc4c5c(ccc(c35)C2=O)C(=O)N(c2cccc(C(=O)O)c2)C4=O)c1
[6]
  IC50: 16.5 µM (active)
[7]
  IC50: 13.7 µM (active)

## CCOC(=O)/C(C#N)=C\c1c(OCC)n(CC)c2ccccc12
[8]
  CC50: 100 µM (active)

## CC(NC(=O)CN(c1cccc(C(F)(F)F)c1)S(=O)(=O)c1ccc(Cl)c([N+](=O)[O-])c1)c1ccccc1 (configuration not stated)
[9]
  IC50: 15.6 µM (inactive)

## Cc1ccc(N(C(=O)Cc2cccs2)C(C(=O)NC2CCCCC2)c2ccccn2)cc1C (configuration not stated)
[1]
  EC50: > 59.6 µM (inactive)
[3]
  EC50: > 0.245 µM (active)

## Cc1ccc(Oc2ccc(NC(=O)Cn3ccsc3=N)cc2)cc1
[10]
  CC50: 15.7 µM (active)
[11]
  IC50: > 25 µM (active)
[12]
  CC50: 19.1 µM (active)
[13]
  IC50: 13.2 µM (active)

## Cc1ccc(CN2CCC(c3cc(-c4ccc(Cl)cc4)[nH]n3)CC2)cc1
[14]
  EC50: > 89.2 µM (inactive)
[15]
  CC50: > 40 µM (active)

## Fc1ccccc1-c1nc(NCCCN2CCOCC2)c2ccccc2n1
[16]
  IC50: 33 µM (inactive)
[17]
  IC50: 13 µM (active)

## O=c1c2ccccc2[nH]c(=S)n1CCCN1CCN(c2ccccc2)CC1
[18]
  EC50: < 0.1 µM (active)
[10]
  CC50: > 12.5 µM (active)
[19]
  EC50: 0.169 µM (active)
[11]
  IC50: > 25 µM (active)
[20]
  EC50: > 60 µM (not active)

## Cn1cnc([N+](=O)[O-])c1Sc1ccc([N+](=O)[O-])cc1
[21]
  IC50: > 66 µM (inactive)
[22]
  EC50: > 120 µM (not active)
[23]
  IC50: > 66 µM (inactive)
[24]
  EC50: > 120 µM (not active)
[25]
  EC50: > 120 µM (not active)
[26]
  CC50: > 20 µM (active)
[27]
  CC50: > 40 µM (active)
[28]
  IC50: 10.8 µM (active)
[29]
  IC50: > 80 µM (inactive)
[30]
  AC50: 8.39 µM (active)

## Cc1ccc(C)c(-c2csc(NC(=O)c3cnccn3)n2)c1
[18]
  EC50: 2.04 µM (active)
[20]
  EC50: 10.4 µM (active)
[26]
  CC50: 17.6 µM (active)
[28]
  IC50: 3.99 µM (active)

## O=c1c2ccccc2[nH]c(=S)n1CCCN1CCN(c2ccccc2F)CC1
[11]
  IC50: > 25 µM (active)

## N#CC1=C(SCc2ccc(C#N)cc2)N=C(N)C(c2nc(-c3ccccc3)cs2)C12CCCCC2 (configuration not stated)
[1]
  EC50: > 59.6 µM (inactive)
[3]
  EC50: > 59.6 µM (inactive)

## CN(C)C=O.Cc1cc(-c2ccco2)c(C#N)c2nc3ccccc3n12
[16]
  IC50: > 80 µM (inactive)
[31]
  IC50: > 50 µM (not active)
[17]
  IC50: 37.5 µM (inactive)

## Cc1cc(C(=O)N/N=C/c2ccc(Cl)c([N+](=O)[O-])c2)c(C)n1-c1ccc(F)cc1
[1]
  EC50: > 59.7 µM (inactive)
[3]
  EC50: > 59.7 µM (inactive)
